Measurements from ChEMBL document CHEMBL1142329, “Synthesis and antispasmodic activity of lidocaine derivatives endowed with reduced local anesthetic action” (Bioorg Med Chem Lett, 2008).
pIC50: −log10 of the molar value.

Key:
Rattus norvegicus [1] = assay: Anesthetic activity in rat at 1.0 uMol/site assessed as duration of full recovery of sensory block; format: functional
Rattus norvegicus [2] = assay: Anesthetic activity in rat at 4.0 uMol/site assessed as duration of full recovery of sensory block; format: functional
Rattus norvegicus [3] = assay: Anesthetic activity in rat at 0.5 uMol/site assessed as duration of full recovery of sensory block; format: functional
Rattus norvegicus [4] = assay: Anesthetic activity in rat at 2.0 uMol/site assessed as duration of full recovery of sensory block; format: functional
Ileum [5] = assay: Antispasmodic activity in guinea pig ileum assessed as inhibition of histamine-induced contraction; format: functional, tissue-based; conditions: Cavia porcellus
Ileum [6] = assay: Antispasmodic activity in guinea pig ileum assessed as inhibition of allergen-induced contraction; format: functional, tissue-based; conditions: Cavia porcellus
[7] = Activity at sodium channel assessed as blockade of sodium current

pIC50 (Ileum [5])	pIC50 (Ileum [6])	pIC50 [7]	SMILES	Time (Rattus norvegicus [1]) [min]	Time (Rattus norvegicus [2]) [min]	Time (Rattus norvegicus [3]) [min]	Time (Rattus norvegicus [4]) [min]
			CCN(CC)CC(=O)Nc1cccc(C(F)(F)F)c1	19	18	17	18
			CCN(CC)CCC(=O)Nc1cccc(C)c1C	49	139	22	91
			CCN(CC)CCC(=O)Nc1ccc(C)cc1C	89	239	35	166
3.42	3.48		CCN(CC)CC(=O)Nc1cccc(C)c1C	16	34	7	25
2.85	2.84	3.74	CCN(CC)CC(=O)Nc1c(C)cccc1C [LIDOCAINE]	74	164	37	103
			CCN(CC)CC(=O)Nc1ccc(C(F)(F)F)cc1	19	21	19	19
			CCN(CC)CC(=O)Nc1cc(C)cc(C)c1	91	181	44	134
3.51	3.72		CCN(CC)CC(=O)Nc1ccc(C)cc1C	32	92	17	63
			CCN(CC)CCC(=O)Nc1ccc(C)c(C)c1	48	107	26	80
3.80	3.80		CCN(CC)CC(=O)Nc1ccccc1C	28	63	17	48
			CCN(CC)CC(=O)Nc1ccc(C)c(C)c1	20	55	11	32
3.85	3.92		CCN(CC)CC(=O)Nc1cc(C)ccc1C	28	54	19	40
4.00	4.30	1.60	CCN(CC)CC(=O)Nc1ccccc1C(F)(F)F	13	24	8	15
			CCN(CC)CCC(=O)Nc1c(C)cccc1C	107	311	72	194
			CCN(CC)CCC(=O)Nc1cc(C)ccc1C	47	101	22	72
			CCN(CC)CCC(=O)Nc1cc(C)cc(C)c1	118	377	88	240
